The nature of series [1]: Chemical stability of compound in aqueous solution assessed as half life at 100 ug/ml and pH 4. The series is classed as physicochemical.
The nature of series [2]: Oral bioavailability in Beagle dog at 3 mg/kg. Type of series: ADME, organism-based, Canis lupus familiaris. Particulars: in vivo.
A short description of series [3]: Aqueous solubility of compound at pH 2. The series is classed as physicochemical. Particulars: aqueous solution.
Series [4] is described as follows: Aqueous solubility of compound at pH 6.5. The series is classed as physicochemical. Particulars: aqueous solution.
Series [5] is described as follows: Chemical stability of compound in aqueous solution assessed as half life at 100 ug/ml and pH 1. The series is classed as physicochemical.
A short description of series [6]: Chemical stability of compound in aqueous solution assessed as half life at 100 ug/ml and pH 7.4. Type of series: physicochemical.
The nature of series [7]: Drug concentration in Beagle dog plasma at 3 mg/kg, po measured at 24 hrs. The series is classed as ADME, organism-based, Canis lupus familiaris.
Series [8] is described as follows: AUC (0 to 24 hrs) in Beagle dog at 3 mg/kg, po. Type of series: ADME, organism-based, Canis lupus familiaris. Also on record: time < 24 hr, dose 3 mg/kg, route oral. Particulars: in vivo.
Series [9] can be described thus: Cmax in Beagle dog at 3 mg/kg, po. Type of series: ADME, organism-based, Canis lupus familiaris. Also on record: dose 3 mg/kg, route oral. Particulars: in vivo.
The nature of series [10]: Tmax in Beagle dog at 3 mg/kg, po. The series is classed as ADME, organism-based, Canis lupus familiaris. The settings on record: in vivo.

In brackets after ≈: the same amount, converted by molar mass. Where only a bound is given, the exact number is not on record here.

Regarding `COC(=O)[C@@H](N)CSNC(=O)[C@@H](CCC(F)(F)F)N(Cc1ccc(-c2ncon2)cc1F)S(=O)(=O)c1ccc(Cl)cc1`, the half-life (usually the time in which the quantity being followed falls by half) at 100 ug/ml is 185 h in [1], greater than 500 h in series [5] and 15 h in series [6]. In series [2], the bioavailability was 107 to 115%. In addition, the solubility – broadly, how much of the substance goes into solution per volume – was found to be 3900 µg/mL (≈ 5960 µM) in series [3] and 21 µg/mL (≈ 32.1 µM) in [4]. Moreover, the concentration at 24 h in series [7] was in the range of 90 to 474 nM. Besides, in series [8], the AUC(0-t) (in general, exposure summed from dosing to a finite time, without extrapolation to infinity) at 24 h is 6.03 to 15.8 µM·h. Moreover, the Cmax (in general, the maximum level reached in the sampled fluid or tissue) in [9] was in the range of 707 to 1170 nM. In addition, the Tmax (in general, the time at which the peak concentration occurs) in series [10] came to 2 h.

As for `O=C(NSc1ccccc1)[C@@H](CCC(F)(F)F)N(Cc1ccc(-c2ncon2)cc1F)S(=O)(=O)c1ccc(Cl)cc1`, the half-life at 100 ug/ml in [1] is greater than 500 h; in series [5] it was greater than 500 h; in series [6], 268 h. The solubility in series [3] and in series [4] was less than 1 µg/mL each time.

For the molecule `NCCSNC(=O)[C@@H](CCC(F)(F)F)N(Cc1ccc(-c2ncon2)cc1F)S(=O)(=O)c1ccc(Cl)cc1`, the half-life at 100 ug/ml in series [1] was greater than 500 h; in series [5], greater than 500 h; in series [6], 52 h. Also, the values for the solubility in series [3] and in series [4] were greater than 10000 µg/mL and 321 µg/mL (≈ 539 µM), respectively.

Regarding `N[C@@H](CSNC(=O)[C@@H](CCC(F)(F)F)N(Cc1ccc(-c2ncon2)cc1F)S(=O)(=O)c1ccc(Cl)cc1)C(=O)O`, the half-life at 100 ug/ml in [1] was 418 h; in series [5], greater than 500 h; in series [6] it was 72 h. Besides, the solubility in [3] amounted to 510 µg/mL (≈ 797 µM); in [4], 260 µg/mL (≈ 406 µM).

Consider `CCOC(=O)[C@@H](N)CSNC(=O)[C@@H](CCC(F)(F)F)N(Cc1ccc(-c2ncon2)cc1F)S(=O)(=O)c1ccc(Cl)cc1`, for which the half-life at 100 ug/ml is 258 h in series [1], greater than 500 h in series [5] and 23 h in series [6]. The solubility in series [3] is 4300 µg/mL (≈ 6440 µM); in series [4] it was 10 µg/mL (≈ 15 µM).

With `N#CCCSNC(=O)[C@@H](CCC(F)(F)F)N(Cc1ccc(-c2ncon2)cc1F)S(=O)(=O)c1ccc(Cl)cc1`, the half-life at 100 ug/ml in series [1] was greater than 500 h; in [5] it was greater than 500 h; in [6], 197 h. In addition, the solubility in [3] and in series [4] was less than 1 µg/mL in each case.

In [4], `NC(=O)[C@@H](CCC(F)(F)F)N(Cc1ccc(-c2ncon2)cc1F)S(=O)(=O)c1ccc(Cl)cc1` [AVAGACESTAT] showed a solubility of less than 1 µg/mL. The same molecule showed a concentration at 24 h in series [7] of 98 to 442 nM. For the same molecule, in series [8], the AUC(0-t) at 24 h is 5.25 to 14.6 µM·h. Also, the peak concentration (Cmax) in series [9] lay within 881 to 1150 nM. For the same molecule, the Tmax in series [10] lay within 1 to 2 h.

These data come from ChEMBL document CHEMBL4610023, “An amide-based sulfenamide prodrug of gamma secretase inhibitor BMS-708163 delivers parent drug from an oral conventional solid dosage form in male beagle dog” (Bioorg Med Chem Lett, 2020).
